Laboratory results: paper PMC5218480 (PLoS ONE, 2017)

System: MV-4-11 cells
Assay: Gene expression microarray analysis (Affymetrix PrimeView) and GSEA
Assay type: cell-based, human
Design: RFU PODN (11730768_x_at) / Fold change /veh PODN (11730768_x_at) / RFU LINC00158 (11744669_a_at) / Fold change /veh LINC00158 (11744669_a_at) / RFU DUSP10 (11751237_a_at) / Fold change /veh DUSP10 (11751237_a_at) / RFU ID3 (11757404_x_at) / Fold change /veh ID3 (11757404_x_at) / RFU PLEKHG5 (11737974_s_at) / Fold change /veh PLEKHG5 (11737974_s_at) / RFU LRRC4B (11730491_at) / Fold change /veh LRRC4B (11730491_at) / RFU GIMAP4 (11747438_a_at) / Fold change /veh GIMAP4 (11747438_a_at) / RFU KRT8 (11758183_x_at) / Fold change /veh KRT8 (11758183_x_at) / RFU CNN1 (11734310_a_at) / Fold change /veh CNN1 (11734310_a_at) / RFU VPS37D (11726825_at) / Fold change /veh VPS37D (11726825_at) / RFU C10orf10 (11716522_x_at) / Fold change /veh C10orf10 (11716522_x_at) / RFU KIR2DL2 /// KIR2DL4 /// KIR2DL5A /// KIR2DL5B /// KIR2DS1 /// KIR2DS2 /// KIR2DS3 /// KIR2DS4 /// KIR3DL3 /// KIR3DL3 /// KIR3DS1 (11738374_at) / Fold change /veh KIR2DL2 /// KIR2DL4 /// KIR2DL5A /// KIR2DL5B /// KIR2DS1 /// KIR2DS2 /// KIR2DS3 /// KIR2DS4 /// KIR3DL3 /// KIR3DL3 /// KIR3DS1 (11738374_at) / RFU C1QL1 (11718748_at) / Fold change /veh C1QL1 (11718748_at) / RFU TMPRSS4 (11747572_a_at) / Fold change /veh TMPRSS4 (11747572_a_at) / RFU HAMP (11756126_x_at) / Fold change /veh HAMP (11756126_x_at) / RFU RNFT2 (11725882_a_at) / Fold change /veh RNFT2 (11725882_a_at) / RFU NR4A2 (11747474_a_at) / Fold change /veh NR4A2 (11747474_a_at) / RFU ABCC12 (11746883_a_at) / Fold change /veh ABCC12 (11746883_a_at) / RFU TMEM136 (11760407_x_at) / Fold change /veh TMEM136 (11760407_x_at) / RFU CLDN22 /// WWC2 (11732394_at) / Fold change /veh CLDN22 /// WWC2 (11732394_at) / RFU HLA-DPB1 (11760878_x_at) / Fold change /veh HLA-DPB1 (11760878_x_at) / RFU SPINT1 (11716480_a_at) / Fold change /veh SPINT1 (11716480_a_at) / RFU GAP43 (11754022_s_at) / Fold change /veh GAP43 (11754022_s_at) / RFU A4GNT (11735810_at) / Fold change /veh A4GNT (11735810_at) / RFU PRB3 (11715151_x_at) / Fold change /veh PRB3 (11715151_x_at) / RFU TUBB4B (11761932_at) / Fold change /veh TUBB4B (11761932_at) / RFU CAPN14 (11732068_a_at) / Fold change /veh CAPN14 (11732068_a_at) / RFU TMCC2 (11721928_a_at) / Fold change /veh TMCC2 (11721928_a_at) / RFU IRGQ (11745062_a_at) / Fold change /veh IRGQ (11745062_a_at) / RFU FAM174B (11720279_a_at) / Fold change /veh FAM174B (11720279_a_at) / RFU TMPRSS4 (11748680_a_at) / Fold change /veh TMPRSS4 (11748680_a_at) / RFU FAM212B (11763350_a_at) / Fold change /veh FAM212B (11763350_a_at) / RFU PLEKHG5 (11743358_a_at) / Fold change /veh PLEKHG5 (11743358_a_at) / RFU ZSCAN30 (11745921_a_at) / Fold change /veh ZSCAN30 (11745921_a_at) / RFU CMKLR1 (11741424_a_at) / Fold change /veh CMKLR1 (11741424_a_at) / RFU LOC101060620 /// MAPK8IP1 (11723275_at) / Fold change /veh LOC101060620 /// MAPK8IP1 (11723275_at) / RFU SPTSSB (11747773_x_at) / Fold change /veh SPTSSB (11747773_x_at) / RFU PRSS12 (11739890_at) / Fold change /veh PRSS12 (11739890_at) / RFU BIN1 (11741810_x_at) / Fold change /veh BIN1 (11741810_x_at) / RFU WNT11 (11732464_a_at) / Fold change /veh WNT11 (11732464_a_at) / RFU C10orf10 (11716521_a_at) / Fold change /veh C10orf10 (11716521_a_at) / RFU C5orf56 (11738089_at) / Fold change /veh C5orf56 (11738089_at) / RFU CYB561 (11721691_x_at) / Fold change /veh CYB561 (11721691_x_at) / RFU ANKRD19P (11752326_a_at) / Fold change /veh ANKRD19P (11752326_a_at) / RFU OR2T12 /// OR2T33 /// OR2T8 (11738714_s_at) / Fold change /veh OR2T12 /// OR2T33 /// OR2T8 (11738714_s_at) / RFU VCAN (11748164_a_at) / Fold change /veh VCAN (11748164_a_at) / RFU JSRP1 (11732532_at) / Fold change /veh JSRP1 (11732532_at) / RFU KRTAP10-11 (11738290_x_at) / Fold change /veh KRTAP10-11 (11738290_x_at) / RFU MYO3A (11730013_a_at) / Fold change /veh MYO3A (11730013_a_at) / RFU EBF3 (11725865_a_at) / Fold change /veh EBF3 (11725865_a_at) / RFU CAMK2N1 (11719241_x_at) / Fold change /veh CAMK2N1 (11719241_x_at) / RFU C5orf56 (11738088_a_at) / Fold change /veh C5orf56 (11738088_a_at) / RFU OLFML3 (11715873_a_at) / Fold change /veh OLFML3 (11715873_a_at) / RFU LOC100653217 /// NTM (11731650_a_at) / Fold change /veh LOC100653217 /// NTM (11731650_a_at) / RFU MAPK11 (11762145_a_at) / Fold change /veh MAPK11 (11762145_a_at) / RFU FIZ1 (11724087_x_at) / Fold change /veh FIZ1 (11724087_x_at) / RFU OASL (11726364_x_at) / Fold change /veh OASL (11726364_x_at) / RFU SOX15 (11748057_x_at) / Fold change /veh SOX15 (11748057_x_at) / RFU CD79A (11719716_a_at) / Fold change /veh CD79A (11719716_a_at) / RFU HIST1H1D (11736915_at) / Fold change /veh HIST1H1D (11736915_at) / RFU CASKIN2 (11723855_a_at) / Fold change /veh CASKIN2 (11723855_a_at) / RFU LOC730098 (11760151_x_at) / Fold change /veh LOC730098 (11760151_x_at) / RFU OR4N2 (11742367_at) / Fold change /veh OR4N2 (11742367_at) / RFU PRRT2 (11749266_a_at) / Fold change /veh PRRT2 (11749266_a_at) / RFU SNX32 (11753110_a_at) / Fold change /veh SNX32 (11753110_a_at) / RFU CDHR5 (11726645_a_at) / Fold change /veh CDHR5 (11726645_a_at) / RFU RCAN1 (11760418_a_at) / Fold change /veh RCAN1 (11760418_a_at) / RFU FAM167A (11723789_a_at) / Fold change /veh FAM167A (11723789_a_at) / RFU FAM26E (11764081_at) / Fold change /veh FAM26E (11764081_at) / RFU ISYNA1 (11749810_s_at) / Fold change /veh ISYNA1 (11749810_s_at) / RFU ACY1 (11761880_at) / Fold change /veh ACY1 (11761880_at) / RFU 11764098_at / Fold change /veh 11764098_at / RFU SAMD14 (11745864_x_at) / Fold change /veh SAMD14 (11745864_x_at) / RFU NPB (11741838_a_at) / Fold change /veh NPB (11741838_a_at) / RFU TMPRSS6 (11731388_a_at) / Fold change /veh TMPRSS6 (11731388_a_at) / RFU KRTAP10-2 (11738614_at) / Fold change /veh KRTAP10-2 (11738614_at) / RFU ARHGAP8 /// PRR5-ARHGAP8 (11727945_x_at) / Fold change /veh ARHGAP8 /// PRR5-ARHGAP8 (11727945_x_at) / RFU KRTAP5-7 /// NADSYN1 (11734609_at) / Fold change /veh KRTAP5-7 /// NADSYN1 (11734609_at) / RFU RASL12 (11751679_a_at) / Fold change /veh RASL12 (11751679_a_at) / RFU CDKN2B (11736163_a_at) / Fold change /veh CDKN2B (11736163_a_at) / RFU PRF1 (11729649_at) / Fold change /veh PRF1 (11729649_at) / RFU, ZNF638 /// ZNF638-IT1 / Fold change vs veh, ZNF638 /// ZNF638-IT1 / RFU, PANK3 / Fold change vs veh, PANK3 / RFU, SH3YL1 / Fold change vs veh, SH3YL1 / RFU, ZEB2 / Fold change vs veh, ZEB2 / RFU, NRIP1 / Fold change vs veh, NRIP1 / RFU, PTTG1IP / Fold change vs veh, PTTG1IP / RFU, CAPN2 / Fold change vs veh, CAPN2 / RFU, MED14 / Fold change vs veh, MED14 / RFU, SNORA58 / Fold change vs veh, SNORA58 / RFU, C1orf63 / Fold change vs veh, C1orf63 / RFU, LRRFIP1 / Fold change vs veh, LRRFIP1 / RFU, NDUFAF7 / Fold change vs veh, NDUFAF7 / RFU, SLC12A2 / Fold change vs veh, SLC12A2 / RFU, IBTK / Fold change vs veh, IBTK / RFU, ESF1 / Fold change vs veh, ESF1 / Fold change vs veh, TMEM50B / RFU, TAOK1 / Fold change vs veh, TAOK1 / RFU, ACBD3 / Fold change vs veh, ACBD3 / RFU, TMA16 / Fold change vs veh, TMA16 / RFU, RWDD3 / Fold change vs veh, RWDD3 / RFU, BCAT1 / Fold change vs veh, BCAT1 / RFU, EDEM3 / Fold change vs veh, EDEM3 / RFU, TMEM33 / Fold change vs veh, TMEM33 / RFU, WDR75 / Fold change vs veh, WDR75 / RFU, AHCTF1 / Fold change vs veh, AHCTF1 / RFU, TFRC / Fold change vs veh, TFRC / RFU, ZDHHC17 / Fold change vs veh, ZDHHC17 / RFU, NOM1 / Fold change vs veh, NOM1 / RFU, ARL8B / Fold change vs veh, ARL8B / RFU, ZBTB11 / Fold change vs veh, ZBTB11 / RFU, TAMM41 / Fold change vs veh, TAMM41 / RFU, KIAA1704 /// LOC100996395 / Fold change vs veh, KIAA1704 /// LOC100996395 / RFU, ING1 / Fold change vs veh, ING1 / RFU, TRMT61B / Fold change vs veh, TRMT61B / RFU, FUBP3 / Fold change vs veh, FUBP3 / RFU, TP53 / Fold change vs veh, TP53 / RFU, TNKS2 / Fold change vs veh, TNKS2 / RFU, ZFP14 / Fold change vs veh, ZFP14 / RFU, ACTR2 / Fold change vs veh, ACTR2 / RFU, PPP3R1 / Fold change vs veh, PPP3R1 / RFU, PIK3R1 / Fold change vs veh, PIK3R1 / RFU, HNRNPA1 / Fold change vs veh, HNRNPA1 / RFU, RNF170 / Fold change vs veh, RNF170 / RFU, ZNF28 / Fold change vs veh, ZNF28 / RFU, RNGTT / Fold change vs veh, RNGTT / RFU, OGT / Fold change vs veh, OGT / RFU, BRD1 / Fold change vs veh, BRD1 / RFU, MARS / Fold change vs veh, MARS / RFU, ZNF655 / Fold change vs veh, ZNF655 / RFU, FAHD1 / Fold change vs veh, FAHD1 / RFU, BDP1 / Fold change vs veh, BDP1 / RFU, LRRCC1 / Fold change vs veh, LRRCC1 / RFU, ARID1A / Fold change vs veh, ARID1A / RFU, ZNF146 / Fold change vs veh, ZNF146 / RFU, ZNF330 / Fold change vs veh, ZNF330 / RFU, GPN3 / Fold change vs veh, GPN3 / RFU, C9orf123 / Fold change vs veh, C9orf123 / RFU, N4BP2L2 / Fold change vs veh, N4BP2L2 / RFU, ARFIP1 / Fold change vs veh, ARFIP1 / RFU, FAM179B / Fold change vs veh, FAM179B / RFU, BCL10 / Fold change vs veh, BCL10 / RFU, UHRF1BP1L / Fold change vs veh, UHRF1BP1L / RFU, BET1 / Fold change vs veh, BET1 / RFU, CNOT2 / Fold change vs veh, CNOT2 / RFU, ZNF268 / Fold change vs veh, ZNF268 / Fold change vs veh, ZNF507 / RFU, DGCR2 / Fold change vs veh, DGCR2 / RFU, WDSUB1 / Fold change vs veh, WDSUB1 / Fold change vs veh, HSP90B1 /// MIR3652 / RFU, ADSS / Fold change vs veh, ADSS / RFU, GK / Fold change vs veh, GK / RFU, ZNF148 / Fold change vs veh, ZNF148 / RFU, TAF9 / Fold change vs veh, TAF9 / RFU, SLC1A5 / Fold change vs veh, SLC1A5 / RFU, SLMO2 / Fold change vs veh, SLMO2 / RFU, ABCC4 / Fold change vs veh, ABCC4 / RFU, LOC101060439 /// RAP1B / Fold change vs veh, LOC101060439 /// RAP1B / RFU, RFX7 / Fold change vs veh, RFX7 / RFU, GTPBP10 / Fold change vs veh, GTPBP10 / RFU, CNEP1R1 / Fold change vs veh, CNEP1R1 / RFU, BIVM-ERCC5 /// ERCC5 / Fold change vs veh, BIVM-ERCC5 /// ERCC5 / RFU, ILF3 / Fold change vs veh, ILF3 / RFU 11762660_at / Fold change /veh 11762660_at / RFU VCAN (11757783_s_at) / Fold change /veh VCAN (11757783_s_at) / RFU DDX43 (11728927_at) / Fold change /veh DDX43 (11728927_at) / RFU KRT8 (11758188_x_at) / Fold change /veh KRT8 (11758188_x_at) / RFU NKD1 (11759106_at) / Fold change /veh NKD1 (11759106_at) / RFU SRD5A1 (11742802_a_at) / Fold change /veh SRD5A1 (11742802_a_at) / RFU TPSAB1 /// TPSB2 (11721975_s_at) / Fold change /veh TPSAB1 /// TPSB2 (11721975_s_at) / RFU GSTM3 (11746129_a_at) / Fold change /veh GSTM3 (11746129_a_at) / RFU IL23R (11737362_x_at) / Fold change /veh IL23R (11737362_x_at) / RFU TMEM51 (11727254_a_at) / Fold change /veh TMEM51 (11727254_a_at) / RFU PIWIL2 (11732686_x_at) / Fold change /veh PIWIL2 (11732686_x_at) / RFU ORM1 (11744905_x_at) / Fold change /veh ORM1 (11744905_x_at) / RFU CCDC152 (11743942_at) / Fold change /veh CCDC152 (11743942_at) / RFU ECM1 (11717891_a_at) / Fold change /veh ECM1 (11717891_a_at) / RFU IL23R (11748794_a_at) / Fold change /veh IL23R (11748794_a_at) / RFU TNFAIP8L3 (11732012_x_at) / Fold change /veh TNFAIP8L3 (11732012_x_at) / RFU MBOAT4 (11741988_at) / Fold change /veh MBOAT4 (11741988_at) / RFU 11764193_at / Fold change /veh 11764193_at / RFU TMEM53 (11763286_at) / Fold change /veh TMEM53 (11763286_at) / RFU MAGEB2 (11727129_at) / Fold change /veh MAGEB2 (11727129_at) / RFU TMEM200A (11744735_a_at) / Fold change /veh TMEM200A (11744735_a_at) / RFU CCDC152 (11751479_a_at) / Fold change /veh CCDC152 (11751479_a_at) / RFU FAM211A (11726209_a_at) / Fold change /veh FAM211A (11726209_a_at) / RFU RGS16 (11746705_a_at) / Fold change /veh RGS16 (11746705_a_at) / RFU VCAN (11755009_s_at) / Fold change /veh VCAN (11755009_s_at) / RFU RHOB (11743442_s_at) / Fold change /veh RHOB (11743442_s_at) / RFU RGS16 (11720943_a_at) / Fold change /veh RGS16 (11720943_a_at) / RFU RGS16 (11720944_at) / Fold change /veh RGS16 (11720944_at) / RFU, VPS4B / Fold change vs veh, VPS4B / RFU, CREB1 / Fold change vs veh, CREB1 / RFU, DNAJC13 / Fold change vs veh, DNAJC13 / RFU, GNAQ / Fold change vs veh, GNAQ / RFU, CDK5R1 / Fold change vs veh, CDK5R1 / RFU, ZRANB3 / Fold change vs veh, ZRANB3 / RFU, CUL4A / Fold change vs veh, CUL4A / RFU, CCNY / Fold change vs veh, CCNY / RFU, UFL1 / Fold change vs veh, UFL1 / RFU, COG3 / Fold change vs veh, COG3 / RFU, DIAPH2 / Fold change vs veh, DIAPH2 / RFU, SKA2 / Fold change vs veh, SKA2 / RFU, AFF3 / Fold change vs veh, AFF3 / RFU, LMF1 / Fold change vs veh, LMF1 / RFU, IPO11 / Fold change vs veh, IPO11 / RFU, DFFB / Fold change vs veh, DFFB / RFU, FOXP1 / Fold change vs veh, FOXP1 / RFU, CARD8 / Fold change vs veh, CARD8 / RFU, STRN3 / Fold change vs veh, STRN3 / RFU, ADK / Fold change vs veh, ADK / RFU, RASSF2 / Fold change vs veh, RASSF2 / RFU, WIPF1 / Fold change vs veh, WIPF1 / RFU, LARP1B / Fold change vs veh, LARP1B / RFU, RASA1 / Fold change vs veh, RASA1 / RFU, RB1 / Fold change vs veh, RB1 / RFU, PPFIA1 / Fold change vs veh, PPFIA1 / RFU, MAT2A / Fold change vs veh, MAT2A / RFU, CCT5 / Fold change vs veh, CCT5 / RFU, WDR92 / Fold change vs veh, WDR92 / RFU, CUX1 / Fold change vs veh, CUX1 / RFU, TTC7A / Fold change vs veh, TTC7A / RFU, TMEM135 / Fold change vs veh, TMEM135 / RFU, DEPTOR / Fold change vs veh, DEPTOR / RFU, CPM / Fold change vs veh, CPM / RFU, DNAJB6 / Fold change vs veh, DNAJB6 / RFU, CACNA2D3 / Fold change vs veh, CACNA2D3 / RFU, DTX4 / Fold change vs veh, DTX4 / RFU, TFCP2 / Fold change vs veh, TFCP2 / RFU, GMCL1 /// GMCL1P1 / Fold change vs veh, GMCL1 /// GMCL1P1 / RFU, AEBP2 / Fold change vs veh, AEBP2 / RFU, SNHG1 /// SNORD22 /// SNORD25 /// SNORD26 /// SNORD27 /// SNORD28 /// SNORD29 /// SNORD31 / Fold change vs veh, SNHG1 /// SNORD22 /// SNORD25 /// SNORD26 /// SNORD27 /// SNORD28 /// SNORD29 /// SNORD31 / Fold change (Aza/veh), C12orf56 (ProbeSet 11735607_a_at) / Fold change (ACY-1035/veh), C12orf56 (ProbeSet 11735607_a_at) / Fold change (Aza/veh), FGFR1OP (ProbeSet 11751329_s_at) / Fold change (ACY-1035/veh), FGFR1OP (ProbeSet 11751329_s_at) / Fold change (Aza/veh), VPS36 (ProbeSet 11739960_a_at) / Fold change (ACY-1035/veh), VPS36 (ProbeSet 11739960_a_at) / RFU SYPL1 (11715823_x_at) / Fold change /veh SYPL1 (11715823_x_at) / RFU IGFBP7 (11715501_s_at) / Fold change /veh IGFBP7 (11715501_s_at) / RFU REEP3 (11722064_at) / Fold change /veh REEP3 (11722064_at) / RFU IGLL1 (11728026_x_at) / Fold change /veh IGLL1 (11728026_x_at): dose or concentration left out as unconfirmed
Conditions: ProbeSet 11747937_a_at; LIST D

With `Nc1ccc(-c2cccs2)cc1NC(=O)c1ccc2c(c1)cc(C1CC1)n2CCN1CCOCC1` [ACY-1035] as the molecule, how does the “RFU, DNAJB6” value read?
The value was 348.58 RFU.
